Patent US9771344B2, “Peloruside analogs” (Universiteit Gent, priority 2013, dated 2017)

Tests used:
[1] = tested on: cytoplasmic microtubule complex; assay: Immunocytochemistry of the cytoplasmic microtubule complex; type: cell-based, rat kangaroo (Potorous tridactylus); details: PtK2 cells
Procedure: The PtK2 cell line was established from the kidney tissue of an adult male rat kangaroo (Potorous tridactylus).
Cells were seeded on glass coverslips in culture medium, supplemented with fetal bovine serum, at an initial concentration of 10,000/coverslip. After incubation overnight to allow spreading, treatments started at 37° C. for 1, 4 or 24 h. Cultures were then rinsed with phosphate-buffered saline and fixed in methanol at −20° C. The primary rabbit anti-tubulin polyclonal antibody was a gift from Dr. De Brabander (Janssen Life Sciences, Beerse, Belgium).
PtK2 cells were treated with DMSO (solvent control), JC168, or paclitaxel (positive control). After 1 hour, 4 hours, and 24 hours of incubation, cells were fixed and stained for the cytoplasmic microtubule complex.

MO4 cells [2] = assay: Sulforhodamine B assay (cell growth); type: cell-based, murine; details: 4 days
Procedure: (§1) MO4 cells were treated with dimethyl sulfoxide (DMSO, solvent control), 0.001, 0.01, 0.1 or 1 μg/ml JC168 for 4 days. After said 4 days of incubation the cells were fixed and stained with sulforhodamine B to determine cellular protein content. Excess dye was removed by washing. Protein-bound dye was dissolved and optical density was measured. Data represent optical density (OD) as a percentage of solvent control (mean and standard deviation, n=6).
as §1, with “FIG. 2: Comparison of JC168 and paclitaxel to inhibit cell growth. MO4” for “MO4”, “1 μg/ml JC168” for “0.001, 0.01, 0.1”, “paclitaxel” for “JC168”, “n=6). […]” for “n=6).”
The sulforhodamine B (SRB) assay was used for cell density determination. […] The method allows a large number of samples to be tested within a few days, and is a quantitative assay for growth inhibition by microtubule inhibitors. […] The protein-bound dye was dissolved in 10 mM Tris base solution for OD determination at 510 nm using a microplate reader. […]

MO4 cells [3] = assay: MTT assay (MTT conversion); type: cell-based, murine; details: 4 days
Procedure: (§2) FIG. 3: JC168 inhibits MTT conversion. MO4 cells were treated with dimethyl sulfoxide (DMSO, solvent control), 0.001, 0.01, 0.1 or 1 μg/ml JC168 for 4 days. Then, 3-(4,5-dimethylthiazol-2-yl)-2,5-diphenyltetrazolium bromide was added and the cultures were incubated to allow the cells to reduce the MTT into formazan. The formazan was dissolved and optical density was measured. Data represent optical density (OD) as a percentage of solvent control (mean and standard deviation, n=6).
as §2, with “FIG. 4: Comparison of” for “FIG. 3:”, “JC168 and paclitaxel to inhibit” for “JC168 inhibits”, “control), 1 μg/ml JC168” for “control), 0.001, 0.01, 0.1”, “μg/ml paclitaxel” for “μg/ml JC168”
As test cells for functional assays MO4 cells were used, which are murine virally transformed fibrosarcoma-like cells. […]
MTT (3-(4,5-Dimethylthiazol-2-yl)-2,5-diphenyltetrazolium bromide, a yellow tetrazole), was reduced to purple formazan in living cells. […] The absorbance of this colored solution was quantified by measuring it at a wavelength between 500 and 600 nm by a spectrophotometer. […]

MDA-MB231 GFP-LUC cells = assay: Collagen type I invasion assay; type: cell-based, human; details: for Histological sections of the collagen gels: cells on top of the gel: after 14 days
Procedure: Invading cells were counted by phase-contrast microscopy as cells with extensions penetrating into the gel. (A) Invasion was calculated as the percentage of invading cells per high powered field (mean and standard deviation, n=10). Microphotographs of representative cultures of MDA-MB231 GFP-LUC cells treated with DMSO (B), 1 μg/ml JC168 (C), and 1 μg/ml paclitaxel (D) after 24 hours of incubation on top of a collagen type I gel. Scalebar=100 μm.
These cells are derived from a human mammary carcinoma and were stably transfected with green fluorescent protein (GFP) and luciferase (LUC).
Tissue invasion requires infiltration into an extracellular matrix (ECM) dominated by networks of collagen type I. The invasion model, presented here, consists of native, acid-extracted rat tail collagen type I containing nonhelical telopeptides situated at the N- and C-terminal ends. These telopeptides play an important role in intermolecular covalent cross-links necessary for a gel architecture presenting itself as a structural barrier to cancer cell traffic. Collagen type I solution was prepared with a final concentration of 1 mg ml^−1 collagen type I by mixing the following pre-cooled (stored at 4° C.) components: 4 volumes collagen type I (stock is 3.49 mg ml^−1), 5 volumes of calcium- and magnesium-free Hank's balanced salt solution (CMF-HBSS), 1 volume of minimal essential medium (MEM) (10×), 1 volume of 0.25 M NaHCO3, 2.65 volumes of standard medium and 0.3 volumes of 1M NaOH to make the solution alkaline. The collagen type I solution was gently poured into the wells of a 6-well plate. The experimental set-up was placed at 37° C. in a humidified atmosphere with 10% CO2 in air for at least 1 h. After gelification, a cell suspension of MDA-MB231 GFP-LUC cells was added on top of the collagen gels and incubated for 24 hours. […] Invasion is calculated as the percentage of invading cells per high powered field and is expressed as the mean and standard deviation. The number of examined fields is 10. The sections were stained with hematoxylin-eosin.
MDA-MB231 GFP-LUC cells were treated with DMSO (solvent control), JC168, or paclitaxel (positive control) or left untreated (control) and incubated on a collagen type I gel. After 24 hours of incubation, invasion into the collagen was evaluated by phase-contrast microscopy. […] From this we can conclude that the number of invaded cells is clearly lower in the treated cultures.

MO4 cells [4] = assay: Chick heart invasion assay; type: cell-based, murine; details: 1 μg/ml, invasion of MO4 cells into embryonic chick heart
Procedure: Aggregates of MO4 cells were prepared by diluting single dissociated cells to appropriate concentrations in 6 ml complete growth medium in a 50 ml Erlenmeyer flask and incubated on a Gyrotory shaker at 37° C. and 70 rpm in a humidified atmosphere with 10% CO2 in air for 72 h. The aggregates were confronted overnight on top of semi-solid agar medium with precultured heart fragments (PHF, diameter 0.4 mm) prepared from 9-day-old chick embryos. Suspension organotypic cultures were incubated in 1.5 ml culture medium with or without a test compound on a Gyrotory shaker at 120 rpm under a controlled atmosphere containing 10% CO2 in air. Cells were fixed in Bouin-Hollande's solution and embedded in paraffin for histologic determination of cell invasiveness. Consecutive sections were stained with haematoxylin-eosin. Invasion is defined as the progressive occupation of PHF by the confronting test cells. Microscopic analysis of all consecutive sections from a confronting culture allowed the reconstruction of the interaction between the cell aggregate and the PHF in three dimensions.
The observation of different patterns of interaction has led to the following scale:
Grade I and II are observed with non-invasive cell populations, while grade III an IV are typical of invasion. To evaluate progression with time, histological analysis was done on confronting cultures fixed after different incubation periods.
MO4 cells were confronted with precultured heart fragments and the organotypic cultures were incubated in suspension in the presence of DMSO (solvent control), JC168 or paclitaxel (positive control) for 2-4 days.

| SMILES | Effect on the cytoplasmic microtubule complex, 1 hour ([1]; 0.1 μg/ml) | Effect on the cytoplasmic microtubule complex, 4 hours ([1]; 0.1 μg/ml) | Effect on the cytoplasmic microtubule complex, 24 hours ([1]; 0.1 μg/ml) | Effect on the cytoplasmic microtubule complex, 1 hour ([1]; 1.0 μg/ml) | Effect on the cytoplasmic microtubule complex, 4 hours ([1]; 1.0 μg/ml) | Effect on the cytoplasmic microtubule complex, 24 hours ([1]; 1.0 μg/ml) | Potency to inhibit cell growth as compared to paclitaxel (MO4 cells [2]; 1 μg/ml each, FIG. 2) | Effect on cell growth (sulforhodamine B, words) (MO4 cells [2]; 0.001-1 μg/ml, FIG. 1) | Potency to inhibit MTT conversion as compared to paclitaxel (MO4 cells [3]; 1 μg/ml each, FIG. 4) | Effect on MTT conversion into formazan (MO4 cells [3]; 0.001-1 μg/ml, FIG. 3) | Potency to inhibit invasion in collagen type I as compared to paclitaxel (MDA-MB231 GFP-LUC cells; MDA-MB231 GFP-LUC cells, 24 hours) | Effect on invasion into collagen type I (MDA-MB231 GFP-LUC cells; MDA-MB231 GFP-LUC cells, 24 hours, FIG. 5) | Histological sections of the collagen gels: cells on top of the gel (MDA-MB231 GFP-LUC cells) | Number of organotypic cultures classified Grade I (MO4 cells [4]; incubation 2 days) | Number of organotypic cultures classified Grade II (MO4 cells [4]; incubation 3 days) | Number of organotypic cultures classified Grade II (MO4 cells [4]; incubation 4 days) | Number of organotypic cultures classified Grade III (MO4 cells [4]; incubation 4 days) |
| --- | --- | --- | --- | --- | --- | --- | --- | --- | --- | --- | --- | --- | --- | --- | --- | --- | --- |
| CC[C@H](/C=C(/C)[C@@H]1C[C@@H](OC)C[C@H](O)C(C)(C)c2cccc(c2)C[C@@H](O)C(O)C(=O)O1)CO (stereo partly drawn) [JC168, (1′Z,3R,3′R,4S,7S,9S,11S)-3,4,11-Trihydroxy-7-(3′-hydroxymethyl-1′-methylpent-1′-enyl)-9-methoxy-12,12-dimethyl-6-oxabicyclo[11.3.1]heptadeca-1(17),13,15-trien-5-one] | disturbed | disturbed | disturbed | disturbed | disturbed | disturbed | 5% | inhibits cell growth | 3% | inhibits the conversion | 89% | inhibits invasion | low number of cells on top of the gel | n = 5 | n = 5 | n = 3 | n = 3 |
| CC(=O)O[C@H]1C(=O)[C@@]2(C)[C@H]([C@H](OC(=O)c3ccccc3)[C@]3(O)C[C@H](OC(=O)[C@H](O)[C@@H](NC(=O)c4ccccc4)c4ccccc4)C(C)=C1C3(C)C)[C@]1(OC(C)=O)CO[C@@H]1C[C@@H]2O [paclitaxel, reference compound] | normal | disturbed | disturbed | disturbed | disturbed | disturbed |  |  |  |  |  |  | low number of cells on top of the gel |  |  | n = 5 |  |
